Experiments:
Test in all cases: Post-emergence glasshouse spray test, visual percentage phytotoxicity after 13 days
Type in all cases: in vivo
[1] = tested on: Chenopodium album (CHEAL); conditions: for CHEAL percentage phytotoxicity: B1
Procedure: (§1) Seeds of Setaria faberi (SETFA), Echinochloa crus-galli (ECHCG), Digitaria sanguinalis (DIGSA), Lolium perenne (LOLPE), Alopecurus myosuroides (ALOMY), Chenopodium album (CHEAL), Ipomoea hederacea (IPOHE), Stellaria media (STEME), Abutilon threophrasti (ABUTH), Amaranthus retroflexus (AMARE) were sown in standard sterilised soil in pots. After cultivation for 8 days under controlled conditions in a glasshouse (at 24/19° C., day/night; 16 hours light; no humidity control), the plants were sprayed at 500 l/Ha with an aqueous spray solution derived from the formulation of the technical active ingredients in a small amount of acetone and a solvent and emulsifier mixture referred to as IF50 (11.12% Emulsogen EL360™+44.44% N-methylpyrrolidone+44.44% Dowanol DPM glycol ether), to create a 50 g/l solution which was then diluted using 0.2% Genapol XO80 (CAS Number: 9043-30-5) as diluent to give the desired final dose of test compound.
(§2) Where active ingredients were applied as mixtures, aqueous spray solutions were prepared as above, containing both active ingredients.
(§3) The test plants were then grown under controlled conditions in a glasshouse (at 24/18° C., day/night; 15 hours light; 50% humidity) and watered twice daily. After 13 days, the test was evaluated visually for percentage phytotoxicity to the plants (where 100=total damage to plant; 0=no damage to plant; and NC=not captured) when compared to control untreated plants. Two to four replicates were applied for each treatment in a randomised block test design.
(§4) 22., E=X+Y−(X*Y/100), where
(§5) X=average percent phytotoxicity of herbicide A when applied at a certain rate Y=average percent phytotoxicity using herbicide B when applied at a certain rate E=the expected effect of the mixture of herbicides A and B as calculated from the Colby formula.

[2] = tested on: Abutilon threophrasti (ABUTH); conditions: for ABUTH percentage phytotoxicity: B1
Procedure: as §1, §2, §3, §4, §5

[3] = tested on: Digitaria sanguinalis (DIGSA); conditions: for DIGSA percentage phytotoxicity: B1
Procedure: as §1, §2, §3, §4, §5

Lolium perenne (LOLPE) = conditions: for LOLPE percentage phytotoxicity: B1
Procedure: as §1, §2, §3, §4, §5

[4] = tested on: Ipomoea hederacea (IPOHE); conditions: for IPOHE percentage phytotoxicity: B1
Procedure: as §1, §2, §3, §4, §5

[5] = tested on: Amaranthus retroflexus (AMARE); conditions: for AMARE percentage phytotoxicity: B1
Procedure: as §1, §2, §3, §4, §5

[6] = tested on: Alopecurus myosuroides (ALOMY); conditions: for ALOMY percentage phytotoxicity: B1
Procedure: as §1, §2, §3, §4, §5

Setaria faberi (SETFA) = conditions: for SETFA percentage phytotoxicity: B1
Procedure: as §1, §2, §3, §4, §5

Stellaria media (STEME) = conditions: for STEME percentage phytotoxicity: B1
Procedure: as §1, §2, §3, §4, §5

With `Nc1c(F)c(-c2ccc3cc[nH]c3c2F)nc(C(=O)O)c1Cl` [B-VI] the CHEAL percentage phytotoxicity ([1]; 0.625 g/ha post-emergence) was 58%, the CHEAL percentage phytotoxicity ([1]; 1.25 g/ha post-emergence) was 73% and the CHEAL percentage phytotoxicity ([1]; 2.5 g/ha post-emergence) was 75%. It also gave a CHEAL percentage phytotoxicity ([1]; 5 g/ha post-emergence) of 94%, a CHEAL percentage phytotoxicity ([1]; 10 g/ha post-emergence) of 84% and an ABUTH percentage phytotoxicity ([2]; 0.625 g/ha post-emergence) of 38%. For the same compound, the ABUTH percentage phytotoxicity ([2]; 1.25 g/ha post-emergence) was 55%, the ABUTH percentage phytotoxicity ([2]; 2.5 g/ha post-emergence) was 73% and the ABUTH percentage phytotoxicity ([2]; 5 g/ha post-emergence) was 78%. The ABUTH percentage phytotoxicity ([2]; 10 g/ha post-emergence) was 78%, the DIGSA percentage phytotoxicity ([3]; 0.625 g/ha post-emergence) was 0% and the DIGSA percentage phytotoxicity ([3]; 1.25 g/ha post-emergence) was 0%. It also gave a DIGSA percentage phytotoxicity ([3]; 2.5 g/ha post-emergence) of 0%, a DIGSA percentage phytotoxicity ([3]; 5 g/ha post-emergence) of 8% and a DIGSA percentage phytotoxicity ([3]; 10 g/ha post-emergence) of 43%. The “Observed phytotoxicity DIGSA” value ([3]; B2.6.2, 0.625 g/ha post-emergence) was 0%, the “Observed phytotoxicity DIGSA” value ([3]; B2.6.2, 1.25 g/ha post-emergence) was 0% and the “Observed phytotoxicity DIGSA” value ([3]; B2.6.2, 5 g/ha post-emergence) was 8%. The LOLPE percentage phytotoxicity (Lolium perenne (LOLPE); 0.625 g/ha post-emergence) was 0%, the LOLPE percentage phytotoxicity (Lolium perenne (LOLPE); 1.25 g/ha post-emergence) was 0% and the LOLPE percentage phytotoxicity (Lolium perenne (LOLPE); 2.5 g/ha post-emergence) was 0%. For the same compound, the LOLPE percentage phytotoxicity (Lolium perenne (LOLPE); 5 g/ha post-emergence) was 8%, the LOLPE percentage phytotoxicity (Lolium perenne (LOLPE); 10 g/ha post-emergence) was 8% and the “Observed phytotoxicity LOLPE” value (Lolium perenne (LOLPE); B2.6.3, 5 g/ha post-emergence) was 8%. For the same compound, the IPOHE percentage phytotoxicity ([4]; 0.625 g/ha post-emergence) was 13%, the IPOHE percentage phytotoxicity ([4]; 1.25 g/ha post-emergence) was 35% and the IPOHE percentage phytotoxicity ([4]; 2.5 g/ha post-emergence) was 38%. The IPOHE percentage phytotoxicity ([4]; 5 g/ha post-emergence) was 48%, the IPOHE percentage phytotoxicity ([4]; 10 g/ha post-emergence) was 50% and the “Observed phytotoxicity IPOHE” value ([4]; B2.6.4, 2.5 g/ha post-emergence) was 38%. For the same compound, the AMARE percentage phytotoxicity ([5]; 0.625 g/ha post-emergence) was 58%, the AMARE percentage phytotoxicity ([5]; 1.25 g/ha post-emergence) was 65% and the AMARE percentage phytotoxicity ([5]; 2.5 g/ha post-emergence) was 73%. For the same compound, the AMARE percentage phytotoxicity ([5]; 5 g/ha post-emergence) was 95%, the AMARE percentage phytotoxicity ([5]; 10 g/ha post-emergence) was 90% and the ALOMY percentage phytotoxicity ([6]; 0.625 g/ha post-emergence) was 0%. The ALOMY percentage phytotoxicity ([6]; 1.25 g/ha post-emergence) was 0%, the ALOMY percentage phytotoxicity ([6]; 2.5 g/ha post-emergence) was 0% and the ALOMY percentage phytotoxicity ([6]; 5 g/ha post-emergence) was 33%. For the same compound, the ALOMY percentage phytotoxicity ([6]; 10 g/ha post-emergence) was 30%, the SETFA percentage phytotoxicity (Setaria faberi (SETFA); 0.625 g/ha post-emergence) was 0% and the SETFA percentage phytotoxicity (Setaria faberi (SETFA); 1.25 g/ha post-emergence) was 0%. It also gave an SETFA percentage phytotoxicity (Setaria faberi (SETFA); 2.5 g/ha post-emergence) of 0%, an SETFA percentage phytotoxicity (Setaria faberi (SETFA); 5 g/ha post-emergence) of 48% and an SETFA percentage phytotoxicity (Setaria faberi (SETFA); 10 g/ha post-emergence) of 70%. For the same compound, the “Observed phytotoxicity SETFA” value (Setaria faberi (SETFA); B2.6.1, 0.625 g/ha post-emergence) was 0%, the “Observed phytotoxicity SETFA” value (Setaria faberi (SETFA); B2.6.1, 1.25 g/ha post-emergence) was 0% and the STEME percentage phytotoxicity (Stellaria media (STEME); 0.625 g/ha post-emergence) was 78%. For the same compound, the STEME percentage phytotoxicity (Stellaria media (STEME); 1.25 g/ha post-emergence) was 50%, the STEME percentage phytotoxicity (Stellaria media (STEME); 2.5 g/ha post-emergence) was 65% and the STEME percentage phytotoxicity (Stellaria media (STEME); 5 g/ha post-emergence) was 98%. The STEME percentage phytotoxicity (Stellaria media (STEME); 10 g/ha post-emergence) was 90% and the “Observed phytotoxicity STEME” value (Stellaria media (STEME); B2.6.5, 1.25 g/ha post-emergence) was 50%.

`CS(=O)(=O)c1ccc(C(=O)C2C(=O)CCCC2=O)c(Cl)c1OCCC1OCCO1` [B-II] gave a CHEAL percentage phytotoxicity ([1]; 0.625 g/ha post-emergence) of 0%, a CHEAL percentage phytotoxicity ([1]; 1.25 g/ha post-emergence) of 0% and a CHEAL percentage phytotoxicity ([1]; 2.5 g/ha post-emergence) of 38%. For the same compound, the CHEAL percentage phytotoxicity ([1]; 5 g/ha post-emergence) was 53%, the CHEAL percentage phytotoxicity ([1]; 10 g/ha post-emergence) was 65% and the “Observed phytotoxicity CHEAL” value ([1]; B2.4.7, 1.25 g/ha post-emergence) was 0%. For the same compound, the ABUTH percentage phytotoxicity ([2]; 0.625 g/ha post-emergence) was 3%, the ABUTH percentage phytotoxicity ([2]; 1.25 g/ha post-emergence) was 38% and the ABUTH percentage phytotoxicity ([2]; 2.5 g/ha post-emergence) was 50%. For the same compound, the ABUTH percentage phytotoxicity ([2]; 5 g/ha post-emergence) was 58%, the ABUTH percentage phytotoxicity ([2]; 10 g/ha post-emergence) was 63% and the “Observed phytotoxicity ABUTH” value ([2]; B2.4.6, 0.625 g/ha post-emergence) was 3%. For the same compound, the DIGSA percentage phytotoxicity ([3]; 0.625 g/ha post-emergence) was 0%, the DIGSA percentage phytotoxicity ([3]; 1.25 g/ha post-emergence) was 0% and the DIGSA percentage phytotoxicity ([3]; 2.5 g/ha post-emergence) was 0%. The DIGSA percentage phytotoxicity ([3]; 5 g/ha post-emergence) was 0%, the DIGSA percentage phytotoxicity ([3]; 10 g/ha post-emergence) was 0% and the “Observed phytotoxicity DIGSA” value ([3]; B2.4.2, 2.5 g/ha post-emergence) was 0%. For the same compound, the “Observed phytotoxicity DIGSA” value ([3]; B2.4.2, 5 g/ha post-emergence) was 0%, the “Observed phytotoxicity DIGSA” value ([3]; B2.4.2, 10 g/ha post-emergence) was 0% and the LOLPE percentage phytotoxicity (Lolium perenne (LOLPE); 0.625 g/ha post-emergence) was 0%. It also gave an LOLPE percentage phytotoxicity (Lolium perenne (LOLPE); 1.25 g/ha post-emergence) of 0%, an LOLPE percentage phytotoxicity (Lolium perenne (LOLPE); 2.5 g/ha post-emergence) of 0% and an LOLPE percentage phytotoxicity (Lolium perenne (LOLPE); 5 g/ha post-emergence) of 0%. For the same compound, the LOLPE percentage phytotoxicity (Lolium perenne (LOLPE); 10 g/ha post-emergence) was 0%, the “Observed phytotoxicity LOLPE” value (Lolium perenne (LOLPE); B2.4.3, 5 g/ha post-emergence) was 0% and the “Observed phytotoxicity LOLPE” value (Lolium perenne (LOLPE); B2.4.3, 10 g/ha post-emergence) was 0%. The IPOHE percentage phytotoxicity ([4]; 0.625 g/ha post-emergence) was 3%, the IPOHE percentage phytotoxicity ([4]; 1.25 g/ha post-emergence) was 10% and the IPOHE percentage phytotoxicity ([4]; 2.5 g/ha post-emergence) was 23%. The IPOHE percentage phytotoxicity ([4]; 5 g/ha post-emergence) was 38%, the IPOHE percentage phytotoxicity ([4]; 10 g/ha post-emergence) was 48% and the “Observed phytotoxicity IPOHE” value ([4]; B2.4.5, 2.5 g/ha post-emergence) was 23%. The “Observed phytotoxicity IPOHE” value ([4]; B2.4.5, 10 g/ha post-emergence) was 48%, the AMARE percentage phytotoxicity ([5]; 0.625 g/ha post-emergence) was 0% and the AMARE percentage phytotoxicity ([5]; 1.25 g/ha post-emergence) was 5%. It also gave an AMARE percentage phytotoxicity ([5]; 2.5 g/ha post-emergence) of 10%, an AMARE percentage phytotoxicity ([5]; 5 g/ha post-emergence) of 28% and an AMARE percentage phytotoxicity ([5]; 10 g/ha post-emergence) of 48%. The “Observed phytotoxicity AMARE” value ([5]; B2.4.8, 2.5 g/ha post-emergence) was 10%, the ALOMY percentage phytotoxicity ([6]; 0.625 g/ha post-emergence) was 0% and the ALOMY percentage phytotoxicity ([6]; 1.25 g/ha post-emergence) was 0%. It also gave an ALOMY percentage phytotoxicity ([6]; 2.5 g/ha post-emergence) of 0%, an ALOMY percentage phytotoxicity ([6]; 5 g/ha post-emergence) of 0% and an ALOMY percentage phytotoxicity ([6]; 10 g/ha post-emergence) of 0%. The “Observed phytotoxicity ALOMY” value ([6]; B2.4.4, 10 g/ha post-emergence) was 0%, the SETFA percentage phytotoxicity (Setaria faberi (SETFA); 0.625 g/ha post-emergence) was 0% and the SETFA percentage phytotoxicity (Setaria faberi (SETFA); 1.25 g/ha post-emergence) was 0%. It also gave an SETFA percentage phytotoxicity (Setaria faberi (SETFA); 2.5 g/ha post-emergence) of 0%, an SETFA percentage phytotoxicity (Setaria faberi (SETFA); 5 g/ha post-emergence) of 0% and an SETFA percentage phytotoxicity (Setaria faberi (SETFA); 10 g/ha post-emergence) of 3%. The “Observed phytotoxicity SETFA” value (Setaria faberi (SETFA); B2.4.1, 5 g/ha post-emergence) was 0%, the STEME percentage phytotoxicity (Stellaria media (STEME); 0.625 g/ha post-emergence) was 0% and the STEME percentage phytotoxicity (Stellaria media (STEME); 1.25 g/ha post-emergence) was 13%. It also gave an STEME percentage phytotoxicity (Stellaria media (STEME); 2.5 g/ha post-emergence) of 45%, an STEME percentage phytotoxicity (Stellaria media (STEME); 5 g/ha post-emergence) of 35% and an STEME percentage phytotoxicity (Stellaria media (STEME); 10 g/ha post-emergence) of 38%.

Reference: patent US20230389548A1, “MIXTURES OF PYRIMIDINES AS HERBICIDAL COMPOSITIONS” (SYNGENTA CROP PROTECTION AG, priority 2020, published 2023)
